Laboratory results taken from the METLIN SMRT retention time set (Domingo-Almenara et al. 2019).

Test: gradient 5% acetonitrile 3 min, to 50% in 2 min, to 85% in 15 min, held 3 min, 100 µL/min
Conditions: column: Zorbax Extend-C18 2.1 x 50 mm; eluents: water / acetonitrile, 0.1% formic acid
Procedure, shortened: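 Values are retention times taken from adduct peaks that software picked and an analyst inspected. The pure standards were run as mixtures of ~100 molecules on HPLC linked to a quadrupole time-of-flight mass spectrometer, in positive and negative ionization mode. A Zorbax Extend-C18 column (2.1 × 50 mm, 1.8 μm) was used at 100 μL/min with water and acetonitrile, each including 0.1% formic acid.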

SMILES | RP-LC retention time [s]
COc1cc(OC)c(NC(=O)COc2nc(C)nc3ccccc23)cc1Cl | 771
C=CCN1C(=O)COc2ccc(-c3csc(NC(=O)CC(C)C)n3)cc21 | 954
COc1ccc(NC(=O)N2CCN(Cc3nc4cc(Cl)ccc4o3)CC2)cc1OC | 686
Cc1ccc(OCC(=O)Nc2cc3c(cc2N(C)C)n(C)c(=O)c(=O)n3C)c(C)c1 | 962
O=C(NC1(c2nc(-c3ccccc3)no2)CCCCC1)c1ccc2c(c1)OCO2 | 1120
CCC(C(=O)Nc1ccc(OC)c(OC)c1)n1cnc2nc3c(cc2c1=O)CCCC3 (stereo unspecified) | 720
Cc1ccc(C)c(NC(=O)NCC(c2cccnc2)c2cn(C)c3ccccc23)c1 (stereo unspecified) | 733
COCc1noc(CC2CCOC3(CCN(Cc4sccc4C)CC3)C2)n1 (stereo unspecified) | 636
CCN(CCN(C)C)c1nc(-c2ccc(OC)cc2)nc2ccccc12 | 562
Cc1cc(C)n(CCN2CCN(C(=O)Cc3cccs3)CC2)n1 | 548
Cc1ccc(OCC(=O)Nc2cc3[nH]c(=O)[nH]c3cc2C)cc1 | 698
CC(=O)O[C@H]1C[C@@H]2OC3C=C(C)CCC3(C)[C@@]1(C)[C@@]21CO1 (stereo partly specified) | 833
CCN1C=C(C(=O)OCc2cccc(C)c2)C(C)=NS1(=O)=O | 1030
Cc1nc(-c2ccc3c(c2)n(CC(=O)NC(C)(C)C)c(=O)n3C(C)C)no1 | 810
Cc1noc(C)c1S(=O)(=O)N1CCC(CCOc2ccccc2)C1 (stereo unspecified) | 1080
O=C(NC(c1ccccc1)c1nnc(-c2ccccc2Cl)o1)c1ccco1 (stereo unspecified) | 908
CCOC(=O)c1c(C)c(C(=O)C(C)N(CC)C(=O)c2ccc(Cl)cc2)c(C)n1C (stereo unspecified) | 876

SMILES | RP-LC retention time [s]
Cc1ccc(N2CN(CC(=O)Nc3cccc(Cl)c3)S(=O)(=O)c3cccnc32)cc1 | 1030
CCCCCN1CC(=O)N(c2cccc(Cl)c2)[C@@H]2CS(=O)(=O)C[C@@H]21 | 854
Cc1cccc(NC(=O)CN2CCc3[nH]c4c(C)cc(F)cc4c(=O)c3C2)c1 | 626
CCOC(=O)Cc1nnc(-c2ccc(Br)cc2)o1 | 903
CCn1nnc2ccc(-c3noc(-c4ccccc4)n3)cc21 | 1040
Cc1cc2nc(C(=O)NCC(C)C)c(=O)n(C)c2cc1C | 668
Cc1oc(-c2ccc(NC(=O)c3cccs3)cc2)nc1Cn1cccn1 | 836
Cc1ccc(N2CC(c3noc(-c4ccc(N(C)C)cc4)n3)CC2=O)cc1 (stereo unspecified) | 980
CCc1ccccc1NC(=O)N(C)CC1CCOC1 (stereo unspecified) | 699
COC[C@@H]1CN(S(=O)(=O)c2cccc(C#N)c2)C[C@H]1c1ccccn1 | 715
COc1ccc2[nH]c(=O)c(CCC(=O)N(C)CCc3ccncc3)cc2c1 | 589
Cc1cc2c(cc1NC(=O)c1cccs1)n(C)c(=O)c(=O)n2C | 663
O=C(Nc1cc(F)ccc1F)c1cc2sccc2n1Cc1ccc(F)cc1 | 1200
Cc1ccn2cc(-c3ccc(NS(=O)(=O)c4ccc(-c5csc(C)n5)s4)cc3)nc2n1 | 679
Cc1ccc(S(=O)(=O)N2CC(=O)N(c3cccc(F)c3)C(C)(C(=O)NCc3ccccc3)C2)cc1 (stereo unspecified) | 948
CS(=O)(=O)c1ccc2nc(NC(=O)c3coc(NC(=O)c4cccs4)n3)sc2c1 | 685
COc1ccc(NC(=O)N2CCCC2c2nc(-c3cccc(C)c3)no2)cc1 (stereo unspecified) | 827

Second part, the compound after the results:

RP-LC retention time [s] | SMILES
666 | O=C(NCc1ccc2c(c1)OCO2)C1CCCN(c2cnc3nccnc3c2)C1 (stereo unspecified)
663 | CCc1ccc(CNC(=O)c2ccc3c(c2)N(C)C(=O)C2CCCCN32)cc1 (stereo unspecified)
898 | COc1ccc(NC(=O)N2CCC(n3c(C(F)(F)F)nc4cccnc43)CC2)cc1
682 | Cc1nc(Nc2ncc(C(=O)Nc3c(C)cccc3Cl)s2)cc(N2CCN(CCO)CC2)n1
875 | Cc1nn(CC(=O)N2CCCC(C)C2)c(=O)c2nc(-c3ccccc3)sc12 (stereo unspecified)
906 | CCc1noc(C2(NC(=O)c3cc(-c4ccccc4)n[nH]3)CCCCC2)n1
971 | O=C(CN1C(=O)C(C(=O)N2CCCC2)Sc2ccccc21)NCc1ccc(Br)cc1 (stereo unspecified)
806 | Cc1ccc(C(=O)N2CCC(n3c(-c4ccco4)nc4cccnc43)C2)cc1C (stereo unspecified)
644 | CN(C)CCCNC(=O)C1CCN(c2nc3ccc(-c4ccsc4)nc3s2)CC1
1180 | CCc1ccc(CNC(=O)c2cn(CC)nc2S(=O)(=O)N2CCC(C)CC2)cc1
707 | CCc1cccc(NC(=O)C2CC(=O)N(c3ccc4c(c3)CCN4C(C)=O)C2)c1 (stereo unspecified)
720 | Cc1ccc(CN(CC(=O)N2CCNCC2)C(=O)c2sccc2C)cc1
650 | O=C(Cn1ncc2c(N3CCN(c4ccccn4)CC3)ncnc21)Nc1ccc(F)c(Cl)c1
560 | Cc1ccc(O)c(CNC2CCN(c3ccc(C(=O)NC4CC4)cn3)C2)c1 (stereo unspecified)
846 | CCc1onc(C)c1C1CCCN1C(=O)CCc1ccccc1 (stereo unspecified)
822 | O=C(Nc1ccc(F)c(F)c1)C1CCN(c2ccc(=O)n(-c3ccc(F)cc3)n2)CC1

RP-LC retention time [s] | SMILES
719 | O=C(NCCc1csc(C2CCCN(C(=O)C3CCC3)C2)n1)C1CCC1 (stereo unspecified)
987 | Cc1ccc(NC(=O)CN2C(=O)C3CCCCN3c3ccc(S(=O)(=O)N4CCCCC4)cc32)cc1 (stereo unspecified)
563 | O=C(Cn1ccc2ccccc21)N1CCN(S(=O)(=O)C2CC2)CC1
624 | CC1CCN(C(=O)C2CCN(c3cncnc3N(C)C)CC2)CC1
568 | COc1ccc2[nH]c(=O)c(CCC(=O)N3CCN(c4ccccn4)CC3)cc2c1
749 | CCc1ccc(CNC(=O)C2CCN(Cc3cn(C)c4ccc(OC)cc34)CC2)cc1
824 | Cc1cc(NC(=O)N2C[C@@H](F)C[C@H]2C(=O)N2CCCCC2)ccc1Br
1020 | O=C(Nc1ccccc1)C1CCN(S(=O)(=O)c2cc(-c3noc(C4CC4)n3)cs2)CC1
649 | Cc1ccc2c(Nc3ccc4c(c3)OCCO4)c(C(=O)N3CCC(C)CC3)cnc2n1
853 | CCc1csc(-c2ccc(N3CCN(C(=O)c4ccsc4)CC3)nc2)n1
662 | CCCNC(=O)N1CCCCCCN(C)C(=O)CC1
681 | Cn1nc(C(=O)N2CCCCC2)c2c1CCN(C(=O)CCC(=O)NC1CCCCC1)C2
1050 | O=C(Nc1ccc(Cl)cc1F)C1CCCN(C(=O)Cc2cccc3ccccc23)C1 (stereo unspecified)
683 | CCCNc1cc(N2CCCC(CCC(=O)NCc3ccc(F)cc3)C2)ncn1 (stereo unspecified)
684 | CCOc1ccc(-n2c(CN3CCN(C(=O)NCCC(C)C)CC3)nc3cccnc32)cc1
605 | O=C(c1cc2c(s1)-c1ccccc1S(=O)(=O)C2)N1CCN(c2ccccn2)CC1
